Assay results taken from PubChem BioAssay (NCI).
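Where inhibition never reached the appropriate level, the endpoint shown equals the highest concentration tested. Otherwise, values were interpolated linearly from a five-concentration, 48-hour dose response in 96-well plates. The concentration for full growth arrest is given as TGI.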

Assays:
Assay in all cases: NCI anticancer screen, dose series, 48 h
HCT-15 colon = system: HCT-15 colon
A549 NSCLC = system: A549 NSCLC
K-562 leukemia = system: K-562 leukemia
U251 CNS = system: U251 CNS
HCT-116 colon = system: HCT-116 colon
MALME-3M melanoma = system: MALME-3M melanoma
SK-MEL-5 melanoma = system: SK-MEL-5 melanoma
CAKI-1 renal = system: CAKI-1 renal
UACC-257 melanoma = system: UACC-257 melanoma
MCF7 breast = system: MCF7 breast
MDA-MB-435 = system: MDA-MB-435
HS 578T breast = system: HS 578T breast
TK-10 renal = system: TK-10 renal
BT-549 breast = system: BT-549 breast
HT29 colon = system: HT29 colon
UO-31 renal = system: UO-31 renal
EKVX NSCLC = system: EKVX NSCLC
DU-145 prostate = system: DU-145 prostate
SK-MEL-2 melanoma = system: SK-MEL-2 melanoma
MOLT-4 leukemia = system: MOLT-4 leukemia
PC-3 prostate = system: PC-3 prostate
SNB-19 CNS = system: SNB-19 CNS
SN12C renal = system: SN12C renal
OVCAR-3 ovarian = system: OVCAR-3 ovarian
KM12 colon = system: KM12 colon
CCRF-CEM leukemia = system: CCRF-CEM leukemia
OVCAR-5 ovarian = system: OVCAR-5 ovarian
NCI-H226 lung = system: NCI-H226 lung
ACHN renal = system: ACHN renal
NCI/ADR-RES ovarian = system: NCI/ADR-RES ovarian
SK-MEL-28 melanoma = system: SK-MEL-28 melanoma
MDA-N = system: MDA-N
NCI-H23 lung = system: NCI-H23 lung
HL-60(TB) leukemia = system: HL-60(TB) leukemia
M14 melanoma = system: M14 melanoma
SF-295 CNS = system: SF-295 CNS
SF-539 CNS = system: SF-539 CNS
SW-620 colon = system: SW-620 colon
T-47D breast = system: T-47D breast
MDA-MB-231 breast = system: MDA-MB-231 breast
OVCAR-4 ovarian = system: OVCAR-4 ovarian
COLO 205 colon = system: COLO 205 colon
UACC-62 melanoma = system: UACC-62 melanoma
SR leukemia = system: SR leukemia
SF-268 CNS = system: SF-268 CNS
LOX IMVI melanoma = system: LOX IMVI melanoma
HCC-2998 colon = system: HCC-2998 colon
HOP-62 NSCLC = system: HOP-62 NSCLC
A498 renal = system: A498 renal
786-0 renal = system: 786-0 renal
NCI-H460 lung = system: NCI-H460 lung
HOP-92 NSCLC = system: HOP-92 NSCLC
RPMI-8226 leukemia = system: RPMI-8226 leukemia
OVCAR-8 ovarian = system: OVCAR-8 ovarian
SK-OV-3 ovarian = system: SK-OV-3 ovarian
SNB-75 CNS = system: SNB-75 CNS
IGROV1 ovarian = system: IGROV1 ovarian
RXF 393 renal = system: RXF 393 renal
NCI-H522 lung = system: NCI-H522 lung

CC(/C=C/c1ccc([N+](=O)[O-])o1)=N/N1CC(CN2CCOCC2)OC1=O (stereo not given)
TGI (HCT-15 colon): 40.3 µM
TGI (A549 NSCLC): 98.5 µM
TGI (K-562 leukemia): 61.1 µM
TGI (U251 CNS): > 100 µM
TGI (HCT-116 colon): 56.4 µM
TGI (MALME-3M melanoma): 41.3 µM
TGI (SK-MEL-5 melanoma): 28.6 µM
TGI (CAKI-1 renal): 40.7 µM
TGI (UACC-257 melanoma): 36.5 µM
TGI (MCF7 breast): 27 µM
TGI (MDA-MB-435): 42.2 µM
TGI (HS 578T breast): > 100 µM
TGI (TK-10 renal): > 100 µM
TGI (BT-549 breast): 24.2 µM
TGI (HT29 colon): > 100 µM
TGI (UO-31 renal): 45.4 µM
TGI (EKVX NSCLC): > 100 µM
TGI (DU-145 prostate): 60.4 µM
TGI (SK-MEL-2 melanoma): 34.6 µM
TGI (MOLT-4 leukemia): 68.6 µM
TGI (PC-3 prostate): 68 µM
TGI (SNB-19 CNS): > 100 µM
TGI (SN12C renal): > 100 µM
TGI (OVCAR-3 ovarian): 42.8 µM
TGI (KM12 colon): > 100 µM
TGI (CCRF-CEM leukemia): 47.3 µM
TGI (OVCAR-5 ovarian): > 100 µM
TGI (NCI-H226 lung): 52.1 µM
TGI (ACHN renal): 34.2 µM
TGI (NCI/ADR-RES ovarian): 95.9 µM
TGI (SK-MEL-28 melanoma): 38.2 µM
TGI (MDA-N): 35.6 µM
TGI (NCI-H23 lung): 49.8 µM
TGI (HL-60(TB) leukemia): 55.7 µM
TGI (M14 melanoma): 40.3 µM
TGI (SF-295 CNS): > 100 µM
TGI (SF-539 CNS): 48.8 µM
TGI (SW-620 colon): 77.3 µM
TGI (T-47D breast): 41.2 µM
TGI (MDA-MB-231 breast): > 100 µM
TGI (OVCAR-4 ovarian): 29.7 µM
TGI (COLO 205 colon): 29.8 µM
TGI (UACC-62 melanoma): 52.3 µM
TGI (SR leukemia): 50.4 µM
TGI (SF-268 CNS): 51.9 µM
TGI (LOX IMVI melanoma): > 100 µM
TGI (HCC-2998 colon): > 100 µM
TGI (HOP-62 NSCLC): > 100 µM
TGI (A498 renal): 83.9 µM
TGI (786-0 renal): > 100 µM
TGI (NCI-H460 lung): 46.9 µM
TGI (HOP-92 NSCLC): 30.5 µM
TGI (RPMI-8226 leukemia): 41.9 µM
TGI (OVCAR-8 ovarian): 35.3 µM
TGI (SK-OV-3 ovarian): > 100 µM

CN(C)C=Nc1cccc2cnccc12
TGI (HCT-15 colon): > 100 µM
TGI (A549 NSCLC): > 100 µM
TGI (K-562 leukemia): > 100 µM
TGI (U251 CNS): > 100 µM
TGI (HCT-116 colon): > 100 µM
TGI (MALME-3M melanoma): > 100 µM
TGI (SNB-75 CNS): > 100 µM
TGI (SK-MEL-5 melanoma): > 100 µM
TGI (CAKI-1 renal): > 100 µM
TGI (UACC-257 melanoma): > 100 µM
TGI (MCF7 breast): > 100 µM
TGI (MDA-MB-435): > 100 µM
TGI (IGROV1 ovarian): > 100 µM
TGI (HS 578T breast): > 100 µM
TGI (TK-10 renal): > 100 µM
TGI (BT-549 breast): > 100 µM
TGI (HT29 colon): > 100 µM
TGI (UO-31 renal): > 100 µM
TGI (EKVX NSCLC): > 100 µM
TGI (DU-145 prostate): > 100 µM
TGI (SK-MEL-2 melanoma): > 100 µM
TGI (MOLT-4 leukemia): > 100 µM
TGI (PC-3 prostate): > 100 µM
TGI (SNB-19 CNS): > 100 µM
TGI (SN12C renal): > 100 µM
TGI (OVCAR-3 ovarian): > 100 µM
TGI (CCRF-CEM leukemia): > 100 µM
TGI (OVCAR-5 ovarian): > 100 µM
TGI (NCI-H226 lung): > 100 µM
TGI (ACHN renal): > 100 µM
TGI (NCI/ADR-RES ovarian): > 100 µM
TGI (SK-MEL-28 melanoma): > 100 µM
TGI (MDA-N): > 100 µM
TGI (NCI-H23 lung): > 100 µM
TGI (HL-60(TB) leukemia): > 100 µM
TGI (M14 melanoma): > 100 µM
TGI (SF-295 CNS): > 100 µM
TGI (SF-539 CNS): > 100 µM
TGI (T-47D breast): > 100 µM
TGI (MDA-MB-231 breast): > 100 µM
TGI (OVCAR-4 ovarian): > 100 µM
TGI (COLO 205 colon): > 100 µM
TGI (UACC-62 melanoma): > 100 µM
TGI (RXF 393 renal): > 100 µM
TGI (SR leukemia): > 100 µM
TGI (SF-268 CNS): > 100 µM
TGI (LOX IMVI melanoma): > 100 µM
TGI (HOP-62 NSCLC): > 100 µM
TGI (A498 renal): > 100 µM
TGI (786-0 renal): > 100 µM
TGI (HOP-92 NSCLC): > 100 µM
TGI (RPMI-8226 leukemia): > 100 µM
TGI (NCI-H522 lung): > 100 µM
TGI (OVCAR-8 ovarian): > 100 µM
TGI (SK-OV-3 ovarian): > 100 µM
